The IC50 is the concentration at which inhibition is half-maximal.

These results are taken from EP4782453A1 (Beyang Therapeutics Co., Ltd., priority 2023, dated 2025).

Assay [1] has as its target T1, Menin-MLL (Homo sapiens, UniProt O00255).
T1 construct: His-Menin (M1-L615 end); purchased BIORTUS BP9210
T1 sequence (O00255 1-615 isoform O00255-1): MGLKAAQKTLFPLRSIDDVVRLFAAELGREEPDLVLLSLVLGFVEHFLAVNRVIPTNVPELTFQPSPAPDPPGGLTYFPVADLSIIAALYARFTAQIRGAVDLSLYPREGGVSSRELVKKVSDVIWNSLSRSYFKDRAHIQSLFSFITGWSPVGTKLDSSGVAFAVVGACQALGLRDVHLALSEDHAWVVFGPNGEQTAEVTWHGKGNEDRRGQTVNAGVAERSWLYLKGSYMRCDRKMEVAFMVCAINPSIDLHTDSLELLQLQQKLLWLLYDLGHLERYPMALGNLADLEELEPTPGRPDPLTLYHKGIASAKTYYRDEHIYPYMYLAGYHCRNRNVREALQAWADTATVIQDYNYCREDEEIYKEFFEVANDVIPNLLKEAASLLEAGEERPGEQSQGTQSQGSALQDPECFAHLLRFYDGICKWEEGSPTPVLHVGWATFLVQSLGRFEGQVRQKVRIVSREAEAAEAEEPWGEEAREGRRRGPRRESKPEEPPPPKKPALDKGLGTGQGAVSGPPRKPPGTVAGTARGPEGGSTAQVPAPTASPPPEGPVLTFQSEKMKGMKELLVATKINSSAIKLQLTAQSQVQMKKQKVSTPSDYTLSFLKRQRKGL
Briefly: Inhibitory activity against Menin-MLL binding (fluorescence polarization). To be noted: 150 nM His-Menin, 15 nM FITC-MLL, 25°C for 60 min. The method in brief:
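His-Menin (M1-L615, 150 nM) preincubated with compound 15 min at 25 °C in HEPES pH 7.5, 50 mM NaCl, 1 mM DTT, 0.01% BSA, then 15 nM FITC-MLL4-43 peptide added for 60 min at 25 °C. Fluorescence polarization read; IC50 from 4-parameter logistic fit, duplicates.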
(In general: Fluorescence polarisation rises when a labelled molecule tumbles more slowly, as on binding a larger partner.)

In assay [2] the test system is KG-1a (wild-type MLL). Briefly: Inhibition of proliferation of human tumor cells (Alamar Blue, 7 days), KG-1a control cell line. The format is cell-based. To be noted: 168 h, KG-1a cells (wild-type MLL, control cell line), method calls the value GI50. The text has this:
Experimental Example 2: Evaluation of Inhibitory Activity of Compounds Against Proliferation of Human Tumor Cells
• Human acute lymphoblastic leukemia cells MV-4-11, purchased from American Type Culture Collection, Catalog Number: CRL-9591; • Human acute myeloid leukemia cells MOLM-13, purchased from COBIOER BIOSCIENCES CO., LTD, Catalog Number: CBP60678; • Human acute myeloid leukemia cells KG-1a, purchased from American Type Culture Collection, Catalog Number: CCL-246.1; • Inverted Microscope, purchased from Olympus Tokyo; • Countess™ Automated Cell Counter, purchased from Invitrogen, Model: C10281; and • Multilabel Reader, purchased from Bio-Tek, Model: Synergy HT.
MV-4-11 cells were cultured in an IMDM medium containing 10% fetal bovine serum, KG-a cells were cultured in an IMDM medium containing 20% fetal bovine serum, or MOLM-13 cells were cultured in an RPMI-1640 medium containing 20% fetal bovine serum, each supplemented with 100 U·mL^-1 penicillin and 100 µg·mL^-1 streptomycin. These cells were cultured at 37°C with 5% CO2. The suspensions of individual cell lines were prepared in their respective media and seeded into 96-well plates at a density of 4,000 cells/well for MV-4-11 and MOLM-13 cells, or 3,000 cells/well for KG-1a cells. On the day of the experiment, a compound stock solution was diluted in a 3-fold or 4-fold gradient using DMSO. Each gradient-diluted stock solution was then further diluted 250-fold with a complete medium to prepare a series of working solutions at different concentrations. Subsequently, 100 µL of working solution (containing a 2-fold concentration series of the test compound) was added to each well, with duplicate wells set up for each concentration.
Seven days after compound addition (on Day 7), an Alamar Blue assay reagent (MCE, HY-111391 / CS-0040317) was added to measure the fluorescence intensity in each well. Wells containing the cells in the growth medium supplemented with 0.1% DMSO (Day 7) served as high-read control wells. The readouts from the wells containing the cells in the growth medium supplemented with 0.1% DMSO on the day of compound addition (Day 0) served as low-reading control well. GraphPad Prism software was used to calculate the concentration required to inhibit 50% of cell proliferation (GI50), which serves as a cell proliferation inhibition activity index.
A general note: The colour change of resazurin is a common sign of viable cells or microbes.

The subject of assay [3] is MV-4-11 (carrying MLL-AF4). Briefly: Inhibition of proliferation of human tumor cells (Alamar Blue, 7 days), MV-4-11. It counts as cell-based. The note with it: Homo sapiens, MV4-11, 168 h, MV-4-11 cells (carrying MLL-AF4), method calls the value GI50. The method in brief:
(§1)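 Seven-day continuous compound exposure in duplicate wells, with 0.1% DMSO vehicle. Proliferation is quantified by Alamar Blue fluorescence and expressed as GI50, using Day 0 readings as the low reference.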

The test system of assay [4] is MOLM-13 (carrying MLL-AF9). Briefly: Inhibition of proliferation of human tumor cells (Alamar Blue, 7 days), MOLM-13. It counts as cell-based. To be noted: Homo sapiens, MOLM-13 cells (carrying MLL-AF9), method calls the value GI50. The method in brief: as §1
Setting [5] is: Menin-MLL IC50, fluorescence polarization.
The mark [6] stands for this setting: fluorescence polarization, read-out: Menin-MLL IC50.

Where two headings read alike, the source gives them in different places. Where only a bound is given, the exact number is not on record here.

In the case of `CCN(C(=O)c1cc(F)ccc1-c1cc(C2CCN(C[C@H]3CC[C@H](NS(=O)(=O)CC)CC3)C2)cc2c1cnn2C)C(C)C` (stereo partly drawn) [Example 15, N-ethyl-5-fluoro-2-[1-methyl-6-(1-{[(1r,4r)-4-ethanesulfonamidocyclohexyl]methyl}pyrrolidin-3-yl)-1H-indazol-4-yl]-N-isopropylbenzamide], the IC50 in assay [1] (setting [5]) worked out at 0.0115 µM; in assay [2] it was 17 µM; in assay [3] it was 0.023 µM.
Regarding `CCN(C(=O)c1cc(F)ccc1-c1cc(C2=CCC(NCc3ccc4oc(=O)[nH]c4c3)CC2)cn2cncc12)C(C)C` (stereo not drawn) [Example 16, N-ethyl-5-fluoro-2-[6-(4-{[(2-oxo-2,3-dihydro-l,3-benzoxazol-5-yl)methyl]amino}cyclohexyl-1-ene-1-yl)imidazo[1,5-a]pyridin-8-yl]-N-isopropylbenzamide], the IC50 in assay [1] (read-out: Menin-MLL IC50, fluorescence polarization) is 0.0145 µM; in assay [2] it was 20 µM; in assay [3], 0.014 µM.
Turning to `CCN(C(=O)c1cc(F)ccc1-c1cc(C2=CCC(NCc3ccc(-c4cc(OC)c(OC)nn4)cc3)CC2)cn2cncc12)C(C)C` (stereo not drawn) [Example 17], the IC50 in assay [1] (setting [6]) is 0.0095 µM; in assay [2] it was 20 µM; in assay [3], 0.017 µM.
The matching figures for `CCN(C(=O)c1cc(F)ccc1-c1cc(N2CCC(NCc3ccc(-c4cc(OC)c(OC)nn4)cc3)CC2)cn2cncc12)C(C)C` [Example 19, 2-{6-[4-({[4-(5,6-dimethoxypyridazin-3-yl)phenyl]methyl}amino)piperidin-1-yl]imidazo[1,5-a]pyridin-8-yl}-N-ethyl-5-fluoro-N-isopropylbenzamide]: 0.0435 µM, 20 µM and 0.049 µM.
On to `CCN(C(=O)c1cc(F)ccc1-c1cc(N2CCC(NCc3ccc(-c4cc(OC)c(OC)nn4)cc3F)CC2)cn2cncc12)C(C)C` [Example 20], for which the figures for the IC50 in assay [1] (setting [6]), in assay [2] and in assay [3] were 0.045 µM, 20 µM and 0.054 µM, respectively.
Take `CCN(C(=O)c1cc(F)ccc1-c1cc([C@H]2CCN(C[C@H]3CC[C@H](NS(=O)(=O)CC)CC3)C2)cn2cncc12)C(C)C` [Example 22-1, N-ethyl-5-fluoro-N-isopropyl-2-{6-[(3R)-1-{[(1r,4r)-4-ethanesulfonamidocyclohexyl]methyl}pyrrolidin-3-yl]imidazo[1,5-a]pyridin-8-yl}benzamide]: the IC50 in assay [1] (setting [5]) turned out to be 0.023 µM; in assay [2], 20 µM; in assay [3], 0.079 µM.
In the case of `CCN(C(=O)c1cc(F)ccc1-c1cc(CC2CN([C@H](CCCN(C)CCOC)C(C)C)C2)n2c(C)cncc12)C(C)C` [Example 296-1, N-ethyl-5-fluoro-2-[6-({1-[(3R)-6-[(2-methoxyethyl)(methyl)amino]-2-methylhexan-3-yl]azacyclobutan-3-yl}methyl)-4-methylpyrrolo[1,2-a]pyrazin-8-yl]-N-(isopropyl)benzamide], the IC50 in assay [1] (setting [6]) stood at 0.001 µM; in assay [3] it was 0.00075 µM; in assay [4] (168 h), 0.003 µM.
In the case of `CCN(C(=O)c1cc(F)ccc1-c1cc(C2CN([C@H](CCCN(C)CCOC)C(C)C)C2)cn2c(C)nc(F)c12)C(C)C` [Example 307-2, N-ethyl-5-fluoro-2-(1-fluoro-6-{1-[(3R)-6-[(2-methoxyethyl)(methyl)amino]-2-methylhexan-3-yl]azacyclobutan-3-yl}-3-methylimidazo[1,5-a]pyridin-8-yl)-N-(isopropyl)benzamide], the IC50 in assay [1] (setting [6]) turned out to be 0.006 µM; in assay [3] it was 0.00069 µM; in assay [4] (168 h), 0.0037 µM.
Turning to `Cc1nc(F)c2c(-c3ccc(F)cc3C(=O)N3CCOC[C@H]3C)cc(C3CN([C@H](CCCN4CCn5nccc5C4)C(C)C)C3)cn12` [Example 351, (3R)-4-[5-fluoro-2-(1-fluoro-3-methyl-6-{1-[(3R)-2-methyl-6-{4H,5H,6H,7H-pyrazolo[1,5-a]pyrazin-5-yl}hexan-3-yl]azacyclobutan-3-yl}imidazo[1,5-a]pyridin-8-yl)benzoyl]-3-methylmorpholine], the IC50 is 0.0125 µM in assay [1] (setting [6]), over 20 µM in assay [2] and 0.044 µM in assay [4] (168 h).
In the case of `CC(C)[C@@H](CCCN1CCN(C)CC1)N1CC(c2cc(-c3ccc(F)cc3C(=O)N3CCOC[C@H]3C)c3cnn(C)c3c2)C1` [Example 358], the IC50 in assay [1] (setting [5]) was 0.0135 µM; in assay [2], over 20 µM; in assay [4] (MOLM-13, 168 h) it was 0.091 µM.
Consider `CCN(C(=O)c1cc(F)ccc1-c1cc(C2CN([C@H](CCCN3CCC(OC)CC3)C(C)C)C2)cn2c(C)ncc12)C(C)C` [Example 389, N-ethyl-5-fluoro-2-(6-{1-[(3R)-6-(4-methoxypiperidin-1-yl)-2-methylhexan-3-yl]azacyclobutan-3-yl}-3-methylimidazo[1,5-a]pyridin-8-yl)-N-(isopropyl)benzamide], for which the results for the IC50 in assay [1] (setting [6]), in assay [2] and in assay [4] (168 h) were 0.0019 µM, 12 µM and 0.0053 µM, respectively.
For `CCN(C(=O)c1cc(F)ccc1-c1cc(C2CN([C@H](CCCO)C(C)C)C2)cn2c(C)ncc12)C(C)C` [Example 396, N-ethyl-5-fluoro-2-(6-{1-[(3R)-6-hydroxyl-2-methylhexan-3-yl]azacyclobutan-3-yl}-3-methylimidazo[1,5-a]pyridin-8-yl)-N-(isopropyl)benzamide] the same measures were 0.003 µM, over 20 µM and 0.022 µM.
Regarding `CCN(C(=O)c1cc(F)ccc1-c1cc(C2CN([C@H](CN3CCN(C)CC3)C(C)C)C2)cc2c1cnn2C)C(C)C` [Example 402-2, N-ethyl-5-fluoro-2-(1-methyl-6-{1-[(2S)-3-methyl-1-(4-methylpiperazin-1-yl)butan-2-yl]azacyclobutan-3-yl}-1H-indazol-4-yl)-N-(isopropyl)benzamide], the half-inhibitory concentration (IC50) in assay [1] (setting [6]) amounted to 0.01 µM; in assay [2], 11 µM; in assay [4] (168 h) it was 0.065 µM.
For `CCN(C(=O)c1cc(F)ccc1-c1cc(C2CN([C@H](CN3CCN(C)CC3)C(C)C)C2)cn2c(C)ncc12)C(C)C` [Example 403-1, N-ethyl-5-fluoro-2-(3-methyl-6-{1-[(2S)-3-methyl-1-(4-methylpiperazin-1-yl)butan-2-yl]azacyclobutan-3-yl}imidazo[1,5-a]pyridin-8-yl)-N-(isopropyl)benzamide] the same measures were 0.0039 µM, 15 µM and 0.0077 µM.
Take `CCN(C(=O)c1cc(F)ccc1-c1cc(C2CN([C@H](CCCN3CCN(C)CC3)C(C)C)C2)cc2c1cnn2C)C(C)C` [Example 420]: the IC50 in assay [1] (setting [6]) is 0.0038 µM; in assay [3], 0.018 µM; in assay [4] (168 h), 0.043 µM.
